# Laboratory results taken from patent US9073895B2 (Boehringer Ingelheim International GmbH, priority 2010, dated 2015).
# How the values were obtained:
# [1] = molecular target: T1, recombinant human FLAP protein (Homo sapiens, UniProt P20292); experiment: FLAP binding assay (SPA, displacement of [125I]L-691,831); details: membranes of sf9 cells expressing human FLAP, [125I]L-691,831 probe; read-out: hFLAP binding IC50
# T1 construct: made in house; host or cells: Sf9 insect cells (membrane fraction, 100,000 x g pellet)
# T1 sequence (P20292 1-161): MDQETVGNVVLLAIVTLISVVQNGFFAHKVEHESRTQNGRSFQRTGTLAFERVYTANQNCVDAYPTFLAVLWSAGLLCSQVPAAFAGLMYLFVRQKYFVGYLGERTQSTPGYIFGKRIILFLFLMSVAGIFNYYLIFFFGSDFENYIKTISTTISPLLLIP
# Outline: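 Membranes from sf9 cells expressing human FLAP (5 μg/well) were bound to WGA SPA beads (200 μg/well). Nonspecific binding was defined with 10 μM unlabelled L-691,831.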
# [2] = tested on: synthesis of LTB4 in human whole blood; experiment: Human whole blood LTB4 production inhibition assay; format: cell-based; details: heparinized human whole blood, calcimycin 20 μM, plasma LTB4; read-out: HuWB IC50
# Outline: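 Readout: plasma LTB4 by antibody-based HTRF. Compound added to heparinized human whole blood, 15 min 37° C; calcimycin 20 μM final (PBS pH 7.4), 30 min 37° C; spun 1500×g 5 min, plasma taken.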
SMILES,IC50 [1],IC50 [2]
"Cc1cc(NC(=O)C2(c3ccc(-c4cnc5[nH]ccc5c4)cc3)CCC2)ccn1 [Example 189, N-(2-methylpyridin-4-yl)-1-[4-(1H-pyrrolo[2,3-b]pyridin-5-yl)phenyl]cyclobutanecarboxamide]",0.00145 µM,0.191 µM
"COc1cc(NC(=O)C2(c3ccc(-c4cnc5[nH]ccc5c4)cc3)CCC2)ccn1 [Example 190, N-(2-methoxypyridin-4-yl)-1-[4-(1H-pyrrolo[2,3-b]pyridin-5-yl)phenyl]cyclobutanecarboxamide]",0.00225 µM,0.149 µM
"Cc1nc(-c2ccc(NC(=O)C3(c4ccc(-c5ccc(N)nc5)cc4)CCOCC3)nc2)cs1 [Example 191, 4-[4-(6-aminopyridin-3-yl)phenyl]-N-[5-(2-methyl-1,3-thiazol-4-yl)pyridin-2-yl]tetrahydro-2H-pyran-4-carboxamide]",0.0275 µM,1.95 µM
"CNc1ncc(-c2ccc(C3(C(=O)Nc4cccnc4)CCC3)cc2)cn1 [Example 192, 1-{4-[2-(methylamino)pyrimidin-5-yl]phenyl}-N-(pyridin-3-yl)cyclobutanecarboxamide]",0.032 µM,0.861 µM
"CNc1ncc(-c2ccc(C3(C(=O)Nc4ccc(-c5csc(C)n5)cn4)CCOCC3)cc2)cn1 [Example 193, 4-{4-[2-(methylamino)pyrimidin-5-yl]phenyl}-N-[5-(2-methyl-1,3-thiazol-4-yl)pyridin-2-yl]tetrahydro-2H-pyran-4-carboxamide]",0.0101 µM,1.65 µM
"Nc1ncc(-c2ccc(C3(C(=O)Nc4ccc(Oc5ccccc5)cn4)CCC3)cc2)cn1 [Example 194, 1-[4-(2-aminopyrimidin-5-yl)phenyl]-N-(5-phenoxypyridin-2-yl)cyclobutanecarboxamide]",0.0192 µM,0.577 µM
"N#Cc1ccc(NC(=O)C2(c3ccc(-c4cnc(N)nc4)cc3)CCC2)cc1Cl [Example 195, 1-[4-(2-aminopyrimidin-5-yl)phenyl]-N-(3-chloro-4-cyanophenyl)cyclobutane-carboxamide]",0.0027 µM,0.175 µM
"Cc1cnccc1NC(=O)C1(c2ccc(-c3cnc(N)nc3)cc2)CCC1 [Example 196, 1-[4-(2-aminopyrimidin-5-yl)phenyl]-N-(3-methylpyridin-4-yl)cyclobutanecarboxamide]",0.0507 µM,2.91 µM
"Cc1nc(-c2ccc(NC(=O)C3(c4ccc(-c5cnc6[nH]cnc6c5)cc4)CCOCC3)nc2)cs1 [Example 197, 4-[4-(3H-imidazo[4,5-b]pyridin-6-yl)phenyl]-N-[5-(2-methyl-1,3-thiazol-4-yl)pyridin-2-yl]tetrahydro-2H-pyran-4-carboxamide]",0.027 µM,2.44 µM
"O=C(Nc1ccc(Oc2ccccc2)cn1)C1(c2ccc(-c3cnc4[nH]ccc4c3)cc2)CCC1 [Example 198, N-(5-phenoxypyridin-2-yl)-1-[4-(1H-pyrrolo[2,3-b]pyridin-5-yl)phenyl]cyclobutane-carboxamide]",0.00375 µM,0.18 µM
"COc1cc(NC(=O)C2(c3ccc(-c4cnc(N)nc4)cc3)CCC2)ncn1 [Example 199, 1-[4-(2-aminopyrimidin-5-yl)phenyl]-N-(6-methoxypyrimidin-4-yl)cyclobutanecarboxamide]",0.0057 µM,1.38 µM
"Nc1ncc(-c2ccc(C3(C(=O)Nc4nccs4)CCC3)cc2)cn1 [Example 200, 1-[4-(2-aminopyrimidin-5-yl)phenyl]-N-(1,3-thiazol-2-yl)cyclobutanaecarboxamide]",0.019 µM,2.01 µM
"Nc1ncc(-c2ccc(C3(C(=O)Nc4ccc(-c5ccccc5)cn4)CCC3)cc2)cn1 [Example 201, 1-[4-(2-aminopyrimidin-5-yl)phenyl]-N-(5-phenylpyridin-2-yl)cyclobutanecarboxamide]",0.00375 µM,0.225 µM
"Nc1ncc(-c2ccc(C3(C(=O)Nc4ccccc4)CCC3)cc2)cn1 [Example 203, 1-[4-(2-aminopyrimidin-5-yl)phenyl]-N-phenylcyclobutanecarboxamide]",0.0137 µM,3.25 µM
"Nc1ncc(-c2ccc(C3(C(=O)Nc4ccc5ncsc5c4)CCC3)cc2)cn1 [Example 204, 1-[4-(2-aminopyrimidin-5-yl)phenyl]-N-(1,3-benzothiazol-6-yl)cyclobutanecarboxamide]",0.0028 µM,0.415 µM
"Cc1csc(NC(=O)C2(c3ccc(-c4cnc(N)nc4)cc3)CCC2)n1 [Example 205, 1-[4-(2-aminopyrimidin-5-yl)phenyl]-N-(4-methyl-1,3-thiazol-2-yl)cyclobutanecarboxamide]",0.0084 µM,0.922 µM
"COc1ccc(-c2ccc(NC(=O)C3(c4ccc(-c5cnc(N)nc5)cc4)CCC3)nc2)cn1 [Example 208, 1-[4-(2-aminopyrimidin-5-yl)phenyl]-N-(6'-methoxy-3,3'-bipyridin-6-yl)cyclobutanecarboxamide]",0.00335 µM,0.459 µM

SMILES,IC50 [1],IC50 [2]
"Cc1ccc(NC(=O)C2(c3ccc(-c4cnc(N)nc4)cc3)CCC2)nc1 [Example 210, 1-[4-(2-aminopyrimidin-5-yl)phenyl]-N-(5-methylpyridin-2-yl)cyclobutanecarboxamide]",0.0051 µM,0.791 µM
"COc1ccc(NC(=O)C2(c3ccc(-c4cnc(N)nc4)cc3)CCC2)cn1 [Example 213, 1-[4-(2-aminopyrimidin-5-yl)phenyl]-N-(6-methoxypyridin-3-yl)cyclobutanecarboxamide]",0.0126 µM,0.333 µM
"Nc1ncc(-c2ccc(C3(C(=O)Nc4cnccn4)CCC3)cc2)cn1 [Example 214, 1-[4-(2-aminopyrimidin-5-yl)phenyl]-N-(pyrazin-2-yl)cyclobutanecarboxamide]",0.024 µM,1.07 µM
"Nc1ncc(-c2ccc(C3(C(=O)Nc4ccnnc4)CCC3)cc2)cn1 [Example 215, 1-[4-(2-aminopyrimidin-5-yl)phenyl]-N-(pyridazin-4-yl)cyclobutanecarboxamide]",0.0177 µM,0.706 µM
"Cn1ccc(NC(=O)C2(c3ccc(-c4cnc(N)nc4)cc3)CCC2)cc1=O [Example 216, 1-[4-(2-aminopyrimidin-5-yl)phenyl]-N-(1-methyl-2-oxo-1,2-dihydropyridin-4-yl)cyclobutanecarboxamide]",0.0915 µM,3.04 µM
"COc1ccc(NC(=O)C2(c3ccc(-c4cnc(N)nc4)cc3)CCC2)nc1 [Example 217, 1-[4-(2-aminopyrimidin-5-yl)phenyl]-N-(5-methoxypyridin-2-yl)cyclobutanecarboxamide]",0.00825 µM,0.389 µM
"Cn1nccc1-c1ccc(NC(=O)C2(c3ccc(-c4cnc(N)nc4)cc3)CCOCC2)nc1 [Example 218, 4-[4-(2-aminopyrimidin-5-yl)phenyl]-N-[5-(1-methyl-1H-pyrazol-5-yl)pyridin-2-yl]tetrahydro-2H-pyran-4-carboxamide]",0.0325 µM,0.959 µM
"Nc1ncc(-c2ccc(C3(C(=O)Nc4ccc(O)nc4)CCC3)cc2)cn1 [Example 221, 1-[4-(2-aminopyrimidin-5-yl)phenyl]-N-(6-hydroxypyridin-3-yl)cyclobutanecarboxamide]",0.29 µM,> 3 µM
"Cn1ccc(NC(=O)C2(c3ccc(-c4cnc(N)nc4)cc3)CCC2)n1 [Example 222, 1-[4-(2-aminopyrimidin-5-yl)phenyl]-N-(1-methyl-1H-pyrazol-3-yl)cyclobutanecarboxamide]",0.0435 µM,1.23 µM
Cc1nc(-c2ccc(NC(=O)C3(c4ccc(-c5cnc(N)nc5)cc4)CCCC3)nc2)cs1 [Example 223],0.00715 µM,1.67 µM
"Cc1nccn1-c1ccc(NC(=O)C2(c3ccc(-c4cnc(N)nc4)cc3)CCOCC2)cc1 [Example 224, 4-[4-(2-aminopyrimidin-5-yl)phenyl]-N-[4-(2-methyl-1H-imidazol-1-yl)phenyl]tetrahydro-2H-pyran-4-carboxamide]",0.03 µM,0.718 µM
"Nc1ncc(-c2ccc(C3(C(=O)Nc4cccnn4)CCC3)cc2)cn1 [Example 225, 1-[4-(2-aminopyrimidin-5-yl)phenyl]-N-(pyridazin-3-yl)cyclobutanecarboxamide]",0.078 µM,1.37 µM
"CC(C)C(C)(C(=O)Nc1ccncc1)c1ccc(-c2ccc(N(C)C)nc2)cc1 (centres unmarked) [Example 227, 2-{4-[6-(dimethylamino)pyridin-3-yl]phenyl}-2,3-dimethyl-N-(pyridin-4-yl)butanamide]",0.0405 µM,> 3 µM
"CCC(C)(C(=O)Nc1ccc(-c2csc(C)n2)cn1)c1ccc(-c2cnc(N)nc2)cc1 (centres unmarked) [Example 228, 2-[4-(2-aminopyrimidin-5-yl)phenyl]-2-methyl-N-[5-(2-methyl-1,3-thiazol-4-yl)pyridin-2-yl]butanamide]",0.012 µM,1.1 µM
"Cc1nccn1-c1ccc(NC(=O)C2(c3ccc(-c4cnc(N)nc4)cc3)CCC2)cc1 [Example 229, 1-[4-(2-aminopyrimidin-5-yl)phenyl]-N-[4-(2-methyl-1H-imidazol-1-yl)phenyl]cyclobutanecarboxamide]",0.00665 µM,0.153 µM
"Nc1ncc(-c2ccc(C3(C(=O)Nc4ccncc4)CCCC3)cc2)cn1 [Example 230, 1-[4-(2-aminopyrimidin-5-yl)phenyl]-N-(pyridin-4-yl)cyclopentanecarboxamide]",0.0215 µM,0.697 µM
"CCC(C)(C(=O)Nc1ccncc1)c1ccc(-c2cnc(N)nc2)cc1 (centres unmarked) [Example 231, 2-[4-(2-aminopyrimidin-5-yl)phenyl]-2-methyl-N-(pyridin-4-yl)butanamide]",0.084 µM,1.21 µM
